Assay type in all cases: cell-based
Assay [1] deals with human CB1 receptor (hCB1) (Homo sapiens, UniProt P21554). Description: cAMP assay (LANCE TR-FRET) in CHO-K1 cells expressing hCB1. Conditions: intracellular cAMP, NKH-477 prestimulated, + agonist, − inverse agonist. (In general: Cyclic AMP is a second messenger, typically raised through Gs and lowered through Gi signalling.)
Assay [2] deals with human CB2 receptor (hCB2) (Homo sapiens, UniProt P34972). Description: cell-based. As to conditions: intracellular cAMP, CHO-K1 cells, NKH-477 prestimulated, + agonist, − inverse agonist.
human CB2 receptor (hCB2), sequence (P34972 whole entry): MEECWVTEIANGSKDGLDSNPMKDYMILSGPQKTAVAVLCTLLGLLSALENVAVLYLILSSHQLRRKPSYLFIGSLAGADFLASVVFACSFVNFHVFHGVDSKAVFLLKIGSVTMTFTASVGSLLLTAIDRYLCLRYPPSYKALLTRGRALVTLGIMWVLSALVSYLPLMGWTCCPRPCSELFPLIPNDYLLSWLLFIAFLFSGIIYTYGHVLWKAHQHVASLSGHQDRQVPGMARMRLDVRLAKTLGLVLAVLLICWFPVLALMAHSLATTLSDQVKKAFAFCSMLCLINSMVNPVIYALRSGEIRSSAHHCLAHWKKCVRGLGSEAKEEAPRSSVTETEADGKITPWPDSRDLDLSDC
A further assay concerns the target T1, rat CB2 receptor (rCB2) (Rattus norvegicus, UniProt Q9QZN9).
T1 sequence (Q9QZN9 1-360): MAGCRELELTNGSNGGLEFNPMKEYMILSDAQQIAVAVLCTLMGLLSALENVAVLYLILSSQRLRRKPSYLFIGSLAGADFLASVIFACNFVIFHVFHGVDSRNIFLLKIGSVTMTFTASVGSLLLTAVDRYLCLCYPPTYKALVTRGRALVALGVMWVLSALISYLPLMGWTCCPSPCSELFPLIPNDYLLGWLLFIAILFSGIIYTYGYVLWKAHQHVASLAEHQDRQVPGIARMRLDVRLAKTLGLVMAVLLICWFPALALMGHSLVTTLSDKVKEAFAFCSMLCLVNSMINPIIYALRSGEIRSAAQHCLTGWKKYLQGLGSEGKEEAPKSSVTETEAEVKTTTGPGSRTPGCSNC
Nature of the assay: cell-based. As to conditions: intracellular cAMP, CHO-K1 cells, NKH-477 prestimulated, + agonist, − inverse agonist.

human CB1 receptor (hCB1), sequence (P21554 whole entry): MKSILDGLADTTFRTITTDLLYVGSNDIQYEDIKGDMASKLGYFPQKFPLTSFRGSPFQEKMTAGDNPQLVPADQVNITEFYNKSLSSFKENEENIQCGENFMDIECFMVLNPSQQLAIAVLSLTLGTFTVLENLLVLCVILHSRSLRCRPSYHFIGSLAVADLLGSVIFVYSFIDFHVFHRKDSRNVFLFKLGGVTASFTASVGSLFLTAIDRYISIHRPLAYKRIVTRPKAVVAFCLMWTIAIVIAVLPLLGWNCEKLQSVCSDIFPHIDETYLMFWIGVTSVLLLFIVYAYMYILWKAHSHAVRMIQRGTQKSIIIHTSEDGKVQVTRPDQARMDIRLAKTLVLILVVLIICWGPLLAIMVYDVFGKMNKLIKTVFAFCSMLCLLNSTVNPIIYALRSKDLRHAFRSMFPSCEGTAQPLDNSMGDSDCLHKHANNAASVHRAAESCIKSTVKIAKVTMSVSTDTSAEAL

As to `CC(C)CNC(=O)c1ccc2c(c1)N(C(=O)c1ccc(Cl)cc1)CCS2` [Example 1, 4-(4-chlorobenzoyl)-N-isobutyl-3,4-dihydro-2H-benzo[b][1,4]thiazine-6-carboxamide], the “hCB1 EC50 range” value in assay [1] is “−E”. For the same molecule, the “hCB2 EC50 range” value in assay [2] is listed as “−E”.

With `CC(C)CNC(=O)c1ccc2c(c1)N(C(=O)c1ccccc1)CCS2` [Example 2, 4-benzoyl-N-isobutyl-3,4-dihydro-2H-benzo[b][1,4]thiazine-6-carboxamide], at rat CB2 receptor (rCB2), the “rCB2 EC50 range” value is “−C”. The “hCB1 EC50 range” value in assay [1] is given as “−E”. Further, the “hCB2 EC50 range” value in assay [2] is given as “−E”.

In the case of `CC(C)CNC(=O)c1ccc2c(c1)N(C(=O)c1ccc(F)cc1)CCS2` [Example 3, 4-(4-fluorobenzoyl)-N-isobutyl-3,4-dihydro-2H-benzo[b][1,4] thiazine-6-carboxamide], the “rCB2 EC50 range” value at rat CB2 receptor (rCB2) is “−E”. Also, in assay [1], the “hCB1 EC50 range” value is reported as “−E”.

As to `Cc1ccc(C(=O)N2CCSc3ccc(C(=O)NCC(C)C)cc32)cc1` [Example 4, N-isobutyl-4-(4-methylbenzoyl)-3,4-dihydro-2H-benzo[b][1,4] thiazine-6-carboxamide], in assay [1], the “hCB1 EC50 range” value is given as “−E”. Besides, the “hCB2 EC50 range” value in assay [2] is on record as “−E”.

For the molecule `COc1ccc(C(=O)N2CCSc3ccc(C(=O)NCC(C)C)cc32)cc1` [Example 5, N-isobutyl-4-(4-meth-oxybenzoyl)-3,4-di-hydro-2H-benzo[b] [1,4]thiazine-6-carboxamide], the “rCB2 EC50 range” value on rat CB2 receptor (rCB2) is “−E”. The “hCB1 EC50 range” value in assay [1] was “−E”. The “hCB2 EC50 range” value in assay [2] was “−E”.

Turning to `CC(C)(C)NC(=O)c1ccc2c(c1)N(C(=O)c1ccc(F)cc1)CCS2` [Example 6, N-tert-butyl-4-(4-fluorobenzoyl)-3,4-dihydro-2H-benzo[b][1,4] thiazine-6-carboxamide], the “rCB2 EC50 range” value on rat CB2 receptor (rCB2) is “−E”. In assay [1], the “hCB1 EC50 range” value was “−E”.

For `COc1ccc(C(=O)N2CCSc3ccc(C(=O)NC(C)(C)C)cc32)cc1` [Example 7, N-tert-butyl-4-(4-methoxybenzoyl)-3,4-dihydro-2H-benzo[b] [1,4]thiazine-6-carboxamide], the “rCB2 EC50 range” value at rat CB2 receptor (rCB2) was “−E”. Besides, the “hCB1 EC50 range” value in assay [1] is listed as “−E”.

As for `Cc1ccc(C(=O)N2CCSc3ccc(C(=O)NC(C)(C)C)cc32)cc1` [Example 8, N-tert-butyl-4-(4-methylbenzoyl)-3,4-dihydro-2H-benzo[b][1,4]thiazine-6-carboxamide], the “hCB1 EC50 range” value in assay [1] is recorded as “−E”.

Consider `O=C(NC1CCCC1)c1ccc2c(c1)N(C(=O)c1ccc(F)cc1)CCS2` [Example 12, N-cyclopentyl-4-(4-fluorobenzoyl)-3,4-dihydro-2H-benzo[b] [1,4]thiazine-6-carboxamide], for which the “rCB2 EC50 range” value at rat CB2 receptor (rCB2) was “−D”. Moreover, in assay [1], the “hCB1 EC50 range” value is listed as “−E”.

As for `Cc1ccc(C(=O)N2CCSc3ccc(C(=O)NC4CCCC4)cc32)cc1` [Example 13, N-cyclopentyl-4-(4-methylbenzoyl)-3,4-dihydro-2H-benzo[b] [1,4]thiazine-6-carboxamide], the EC50 (on rat CB2 receptor (rCB2) (read-out: rCB2 EC50 range); in assay [1] (read-out: hCB1 EC50 range); in assay [2] (read-out: hCB2 EC50 range)) was above 10 µM in each case.

As to `CCC(=O)N1CCSc2ccc(C(=O)NC34CC5CC(CC(C5)C3)C4)cc21` [Example 39, N-(1-adamantyl)-4-propionyl-3,4-dihydro-2H-benzo[b][1,4]thiazine-6-carboxamide], on rat CB2 receptor (rCB2), the “rCB2 EC50 range” value is reported as “−E”. In addition, the “hCB1 EC50 range” value in assay [1] is listed as “−E”.

Regarding `O=C(NC12CC3CC(CC(C3)C1)C2)c1ccc2c(c1)N(S(=O)(=O)c1ccc(F)cc1)CCS2` [Example 51, N-(1-adamantyl)-4-(4-fluorophenylsulfonyl)-3,4-dihydro-2H-benzo[b][1,4]thiazine-6-carboxamide], the “rCB2 EC50 range” value at rat CB2 receptor (rCB2) is reported as “−C”. For the same molecule, the “hCB1 EC50 range” value in assay [1] is on record as “+D”.

`O=C(c1ccc2c(c1)N(S(=O)(=O)c1ccc(C(F)(F)F)cc1)CCS2)N1CCCC1` [Example 74, pyrrolidin-1-yl(4-(4-(trifluoromethyl)phenylsulfonyl)-3,4-dihydro-2H-benzo[b][1,4]thiazin-6-yl)methanone]: the “rCB2 EC50 range” value on rat CB2 receptor (rCB2) is “−C”. Also, the “hCB2 EC50 range” value in assay [2] is on record as “+E”.

As to `O=C(c1ccc2c(c1)N(S(=O)(=O)c1ccc(C(F)(F)F)cc1)CCS2)N1CCOCC1` [Example 76, morpholino(4-(4-(trifluoromethyl)phenylsulfonyl)-3,4-dihydro-2H-benzo[b][1,4]thiazin-6-yl)methanone], on rat CB2 receptor (rCB2), the “rCB2 EC50 range” value was “+C”. Also, the “hCB2 EC50 range” value in assay [2] is listed as “+D”.

For the molecule `O=C(NNC(=O)c1ccc2c(c1)N(S(=O)(=O)c1ccc(F)cc1)CCS2)c1ccccc1` [Example 78, N′-benzoyl-4-(4-fluorophenylsulfonyl)-3,4-dihydro-2H-benzo[b][1,4]thiazine-6-carbohydrazide], on rat CB2 receptor (rCB2), the “rCB2 EC50 range” value is “+D”. The “hCB2 EC50 range” value in assay [2] is on record as “+E”.

Take `O=C(NNC(=O)c1ccc2c(c1)N(S(=O)(=O)c1ccc(C(F)(F)F)cc1)CCS2)c1ccccc1` [Example 79, N′-benzoyl-4-(4-(trifluoromethyl)phenylsulfonyl)-3,4-dihydro-2H-benzo[b][1,4]thiazine-6-carbohydrazide]: at rat CB2 receptor (rCB2), the “rCB2 EC50 range” value is recorded as “+D”. In addition, the “hCB2 EC50 range” value in assay [2] is on record as “+D”.

In the case of `O=S(=O)(c1ccc(C(F)(F)F)cc1)N1CCSc2ccc(-c3nc(-c4ccccn4)no3)cc21` [Example 81, 3-(pyridin-2-yl)-5-(4-(4-(trifluoromethyl)phenylsulfonyl)-3,4-dihydro-2H-benzo[b][1,4]thiazin-6-yl)-1,2,4-oxadiazole], on rat CB2 receptor (rCB2), the “rCB2 EC50 range” value is given as “+A”. In addition, the “hCB2 EC50 range” value in assay [2] is “+B”.

For `CCc1noc(-c2ccc3c(c2)N(S(=O)(=O)c2ccccc2)CCS3)n1` [Example 86], the “rCB2 EC50 range” value at rat CB2 receptor (rCB2) is on record as “+A”. Also, in assay [2], the “hCB2 EC50 range” value is listed as “+B”.

In the case of `CC(C)CNC(=O)c1ccc2c(c1)N(S(=O)(=O)c1ccccc1)CCC(C)(C)S2` [Example 92, N-isobutyl-2,2-dimethyl-5-(phenyl-sulfonyl)-2,3,4,5-tetrahydrobenzo[b][1,4] thiazepine-7-carboxamide], the “rCB2 EC50 range” value on rat CB2 receptor (rCB2) is “−E”. Also, the “hCB1 EC50 range” value in assay [1] was “−E”.

Consider `CC1(C)CCN(S(=O)(=O)c2ccccc2)c2cc(C(=O)N3CCCCC3)ccc2S1` [Example 93, (2,2-dimethyl-5-(phenylsulfonyl)-2,3,4,5-tetrahydro-benzo[b][1,4]thiazepin-7-yl)(piperidin-1-yl)methanone], for which the “rCB2 EC50 range” value at rat CB2 receptor (rCB2) is “+C”. For the same molecule, the “hCB1 EC50 range” value in assay [1] was “−E”.

Take `CC1(C)CCN(S(=O)(=O)c2ccccc2)c2cc(C(=O)N3CCOCC3)ccc2S1` [Example 94, (2,2-dimethyl-5-(phenylsulfonyl)-2,3,4,5-tetrahydro-benzo[b][1,4]thiazepin-7-yl)(morpholino)-methanone]: the “rCB2 EC50 range” value on rat CB2 receptor (rCB2) is “+D”. In assay [2], the “hCB2 EC50 range” value is recorded as “+E”.

As for `COC(=O)[C@@H](NC(=O)c1ccc2c(c1)N(S(=O)(=O)c1ccccc1)CCC(C)(C)S2)C(C)(C)C` [Example 95, (S)-methyl 2-(2,2-dimethyl-5-(phenyl-sulfonyl)-2,3,4,5-tetrahydrobenzo[b][1,4]thiazepine-7-carboxamido)-3,3-dimethylbutanoate], the “hCB1 EC50 range” value in assay [1] was “−D”. For the same molecule, the “hCB2 EC50 range” value in assay [2] is “+D”.

Turning to `CC(C)(C)CNC(=O)c1ccc2c(c1)N(S(=O)(=O)c1ccccc1)CCC(C)(C)S2` [Example 96, 2,2-dimethyl-N-neo-pentyl-5-(phenyl-sulfonyl)-2,3,4,5-tetrahydrobenzo[b][1,4] thiazepine-7-carboxamide], the “hCB1 EC50 range” value in assay [1] is listed as “−D”. Also, the “hCB2 EC50 range” value in assay [2] is recorded as “+D”.

For the molecule `C[C@@H](NC(=O)c1ccc2c(c1)N(S(=O)(=O)c1ccccc1)CCC(C)(C)S2)C(C)(C)C` [Example 97, (R)-N-(3,3-dimethyl-butan-2-yl)-2,2-dimethyl-5-(phenyl-sulfonyl)-2,3,4,5-tetrahydrobenzo[b][1,4] thiazepine-7-carboxamide], in assay [1], the “hCB1 EC50 range” value is “−D”. Moreover, in assay [2], the “hCB2 EC50 range” value was “+D”.

In the case of `CC1(C)CCN(S(=O)(=O)c2ccc(F)cc2)c2cc(C(=O)NCC3CCOCC3)ccc2S1` [Example 99, 5-(4-fluorophenyl-sulfonyl)-2,2-dimethyl-N-((tetrahydro-2H-pyran-4-yl)methyl)-2,3,4,5-tetrahydro-benzo[b][1,4]thiazepine-7-carboxamide], on rat CB2 receptor (rCB2), the “rCB2 EC50 range” value was “−C”. Moreover, the “hCB1 EC50 range” value in assay [1] is “−E”.

As to `Cc1nnc(-c2ccc3c(c2)N(S(=O)(=O)c2cn(C)cn2)CCS3)o1` [Example 106, 2-methyl-5-(4-(1-methyl-1H-imidazol-4-ylsulfonyl)-3,4-dihydro-2H-benzo[b][1,4]thiazin-6-yl)-1,3,4-oxadiazole], the “rCB2 EC50 range” value at rat CB2 receptor (rCB2) is “+D”. Further, in assay [2], the “hCB2 EC50 range” value is on record as “+E”.

As to `O=S(=O)(c1ccc(C(F)(F)F)cc1)N1CCSc2ccc(-c3ncc(-c4ccccc4)[nH]3)cc21` [Example 107, 6-(5-phenyl-1H-imidazol-2-yl)-4-(4-(trifluoromethyl)phenylsulfonyl)-3,4-dihydro-2H-benzo[b][1,4]thiazine], the “rCB2 EC50 range” value at rat CB2 receptor (rCB2) was “+B”. Moreover, in assay [2], the “hCB2 EC50 range” value was “+C”.

The values are drawn from US7960376B2, “Benzo-fused heterocycles” (priority 2007, dated 2011).
